Source: patent US20060069132A1, “Azolecarboxamide herbicides” (priority 2004, published 2006)
Where two headings read alike, the source gives them in different places.

Experiments:
[1] = tested on: barnyardgrass; test: Test C flooded paddy test; assay type: in vivo, Echinochloa crus-galli; settings: for Plant response rating, Barnyardgrass: 500 g ai/ha, visual rating after 12 to 14 days
Outline: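 Ratings (0 = no effect, 100 = complete control) come from visual comparison with untreated plants after 12 to 14 days in the greenhouse. Treatment was postemergence at the 1- to 4-leaf stage (2–18 cm), or at the 2-leaf stage for the flooded paddy barnyardgrass.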

[2] = tested on: pigweed; test: Test C pre-/postemergence herbicide test; assay type: in vivo, Amaranthus retroflexus; settings: preemergence
Excerpt: (§1) Seeds of plant species selected from bermudagrass (Cynodon dactylon (L.) Pers.), Surinam grass (Urochloa decumbens (Staph) R. D. Webster, previously named Brachiaria decumbens Stapf), cocklebur (Xanthium strumarium L.), corn (Zea mays L.), large crabgrass (Digitaria sanguinalis (L.) Scop.), woolly cupgrass (Eriochloa villosa (Thunb.) Kunth), giant foxtail (Setaria faberi Herrm.), goosegrass (Eleusine indica (L.) Gaertn.), johnsongrass (Sorghum halepense (L.) Pers.), kochia (Kochia scoparia (L.) Schrad.), lambsquarters (Chenopodium album L.), morningglory (Ipomoea coccinea L.), eastern black nightshade (Solanum ptycanthum Dunal), yellow nutsedge (Cyperus esculentus L.), pigweed (Amaranthus retroflexus L.), common ragweed (Ambrosia elatior L.), soybean (Glycine max (L.) Merr.), common (oilseed) sunflower (Helianthus annuus L.) and velvetleaf (Abutilon theophrasti Medik.) were planted and treated preemergence with test chemicals formulated in a non-phytotoxic solvent mixture which included a surfactant.
(§2) At the same time, plants selected from these crop and weed species and also winter barley (Hordeum vulgare L.), blackgrass (Alopecurus myosuroides Huds.), canarygrass (Phalaris minor Retz.), chickweed (Stellaria media (L.) Vill.), downy bromegrass (Bromus tectorum L.), green foxtail (Setaria viridis (L.) Beauv.), Italian ryegrass (Lolium multiflorum Lam.), wheat (Triticum aestivum L.), wild oat (Avenafatua L.) and windgrass (Apera spica-venti (L.) Beauv.) were treated with postemergence applications of some of the test chemicals formulated in the same manner. Plants ranged in height from 2 to 18 cm (1- to 4-leaf stage) for postemergence treatments. Plant species in the flooded paddy test consisted of rice (Oryza sativa), smallflower umbrella sedge (Cyperus difformis L.), ducksalad (Heteranthera limosa (Sw.) Willd.) and barnyardgrass (Echinochloa crus-galli (L.) Beauv.) grown to the 2-leaf stage for testing. Treated plants and controls were maintained in a greenhouse for 12 to 14 days, after which time all species were compared to controls and visually evaluated. Plant response ratings, summarized in Table C, are based on a scale of 0 to 100 where 0 is no effect and 100 is complete control. A dash (-) response means no test result.

[3] = tested on: common ragweed; test: Test C pre-/postemergence herbicide test; assay type: in vivo, Ambrosia elatior; parameters: key to Plant response rating, Ragweed: 0 = no effect, 100 = complete control; settings: preemergence; for Plant response rating (0 = no effect, 100 = complete control), Ragweed: 125 g ai/ha
Excerpt: as §1, §2

[4] = tested on: goosegrass; test: Test C pre-/postemergence herbicide test; assay type: in vivo, Eleusine indica; settings: preemergence
Excerpt: as §1, §2

[5] = tested on: kochia; test: Test C pre-/postemergence herbicide test; assay type: in vivo, Kochia scoparia; settings: preemergence
Excerpt: as §1, §2

[6] = tested on: large crabgrass; test: Test C pre-/postemergence herbicide test; assay type: in vivo, Digitaria sanguinalis; settings: preemergence
Excerpt: as §1, §2

[7] = tested on: velvetleaf; test: Test C pre-/postemergence herbicide test; assay type: in vivo, Abutilon theophrasti; settings: preemergence; for Plant response rating (0 = no effect, 100 = complete control), Velvetleaf: 125 g ai/ha
Excerpt: as §1, §2

[8] = tested on: giant foxtail; test: Test A pre-/postemergence herbicide test; assay type: in vivo, Setaria faberi; settings: for pest or weed control at 125 g/ha / pest or weed control at 500 g/ha: Setaria faberi, 240 h, read-out: Foxtail, Giant plant response rating; for pest or weed control at 125 g/ha: 125 g ai/ha
Outline: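 Greenhouse injury scoring (0–100, complete control = 100) at approximately ten days follows simultaneous pre- and postemergence application. Soil received a directed spray after seeding; seedlings of 2–10 cm at the one- to two-leaf stage were sprayed to runoff.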

[9] = 62 g ai/ha, scale 0 to 100 (0 no effect, 100 complete control)
[10] = 125 g ai/ha, scale 0 to 100 (0 no effect, 100 complete control)
[11] = 250 g ai/ha, scale of 0 to 100, 0 is no effect, 100 is complete control
[12] = scale 0 to 100 (0 no effect, 100 complete control)
[13] = 125 g ai/ha, scale 0 (no effect) to 100 (complete control), visual, 12 to 14 days
[14] = 500 g ai/ha, scale 0 to 100 (0 no effect, 100 complete control), visual, 12 to 14 days

SMILES	Barnyardgrass plant response rating [1, 9]	Barnyardgrass plant response rating [1, 10]	Barnyardgrass plant response rating [1, 11]	Plant response rating, Barnyardgrass [1, 12]	Plant response rating, Pigweed ([2]; 62 g ai/ha, scale 0 to 100)	Plant response rating, Pigweed ([2]; 250 g ai/ha, scale 0-100)	Plant response rating, Ragweed ([3]; 62 g ai/ha, scale 0 to 100)	Plant response rating, Ragweed ([3]; 250 g ai/ha, scale 0-100)	Plant response rating, Goosegrass ([4]; 62 g ai/ha, scale 0 to 100)	Plant response rating, Goosegrass ([4]; 250 g ai/ha, scale 0-100)	Plant response rating, Kochia ([5]; 62 g ai/ha, scale 0 to 100)	Plant response rating, Kochia ([5]; 250 g ai/ha, scale 0-100)	Plant response rating, Crabgrass, Large ([6]; 62 g ai/ha, scale 0 to 100)	Plant response rating, Crabgrass, Large ([6]; 250 g ai/ha, scale 0-100)	Plant response rating, Velvetleaf ([7]; 62 g ai/ha, scale 0 to 100)	Plant response rating, Velvetleaf ([7]; 250 g ai/ha, scale 0-100)	Plant response rating (0 = no effect, 100 = complete control), Pigweed ([2]; 125 g ai/ha)	Plant response rating (0 = no effect, 100 = complete control), Ragweed [3]	Plant response rating (0 = no effect, 100 = complete control), Goosegrass ([4]; 125 g ai/ha)	Plant response rating (0 = no effect, 100 = complete control), Kochia ([5]; 125 g ai/ha)	also measured
CCn1nc(C(C)(C)C)cc1C(=O)Nc1cc(C(=S)N(C)C)ccn1 [Compound 334]	70	90	95	95	100	100	75	100	100	100	100	100	85	100	5	85	–	–	–	–	Plant response rating, Pigweed [2, 13]: 100; Plant response rating, Goosegrass [4, 13]: 100; Plant response rating, Kochia [5, 13]: 100; Plant response rating, Crabgrass, Large [6, 13]: 100
CCNC(=O)c1cccc(NC(=O)c2nc(C(C)(C)C)nn2CC)c1 [Compound 446, 3-(1,1-dimethylethyl)-1-ethyl-N-[3-[(ethylamino)carbonyl]phenyl]-1H-1,2,4-triazole-5-carboxamide]	–	–	–	–	–	–	–	–	–	–	–	–	–	–	–	–	–	–	–	–	pest or weed control at 125 g/ha ([8]; post-emergence, Postemergence, 0 to 100 scale, 0 no effect, 100 complete control): 75%; pest or weed control at 500 g/ha ([8]; post-emergence, Postemergence, 500 g ai/ha, 0 to 100 scale, 0 no effect, 100 complete control): 90%; pest or weed control at 125 g/ha ([8]; pre-emergence, preemergence, visual injury, 0 to 100 scale (0 no effect, 100 complete control)): 70%; pest or weed control at 500 g/ha ([8]; pre-emergence, preemergence, 500 g ai/ha, visual injury, 0 to 100 scale (0 no effect, 100 complete control)): 95%
C=CCNC(=O)c1cccc(NC(=O)c2nn(C(C)(C)C)nc2CC)c1 [Compound 414]	–	–	–	–	100	–	15	–	95	100	60	80	100	100	90	–	100	45	100	75	Plant response rating, Pigweed [2, 14]: 100; Plant response rating, Ragweed [3, 14]: 65; Plant response rating, Goosegrass [4, 14]: 100; Plant response rating, Kochia [5, 14]: 100; Plant response rating (0 = no effect, 100 = complete control), Crabgrass, Large ([6]; 125 g ai/ha): 100; Plant response rating, Crabgrass, Large [6, 14]: 100; Plant response rating (0 = no effect, 100 = complete control), Velvetleaf [7]: 100; Plant response rating, Velvetleaf [7, 14]: 100
CCC1=NN(C(C)(C)C)CC1C(=O)Nc1cc(C(=O)N(C)C)ccc1F (racemic) [Compound 343]	20	20	60	80	80	100	70	90	60	80	90	100	50	80	60	100	90	90	75	100	Plant response rating, Pigweed [2, 14]: 100; Plant response rating, Ragweed [3, 14]: 100; Plant response rating, Goosegrass [4, 14]: 85; Plant response rating, Kochia [5, 14]: 100; Plant response rating (0 = no effect, 100 = complete control), Crabgrass, Large ([6]; 125 g ai/ha): 80; Plant response rating, Crabgrass, Large [6, 14]: 100; Plant response rating (0 = no effect, 100 = complete control), Velvetleaf [7]: 80; Plant response rating, Velvetleaf [7, 14]: 100
CCc1nn(C(C)(C)C)nc1C(=O)Nc1cccc(C(=O)N(C)CC)c1 [Compound 384]	65	75	90	95	100	100	100	100	85	100	90	100	100	100	100	100	100	100	95	100	Plant response rating (0 = no effect, 100 = complete control), Crabgrass, Large ([6]; 125 g ai/ha): 100; Plant response rating (0 = no effect, 100 = complete control), Velvetleaf [7]: 100
CCNC(=O)c1ccc(F)c(NC(=O)c2c3c(nn2CC)C(C)(C)CC3)c1 [Compound 353]	0	0	20	20	–	–	–	–	–	–	–	–	–	–	–	–	–	–	–	–	–
C=Cn1nc(C(C)(C)C)cc1C(=O)Nc1cccc(C(C)=O)c1 [Compound 127]	20	–	30	55	–	–	–	–	–	–	–	–	–	–	–	–	–	–	–	–	Barnyardgrass plant response rating ([1]; 125 g ai/ha, scale of 0 to 100, 0 is no effect, 100 is complete control): 30; Foxtail, Giant plant response rating ([8]; Postemergence, 500 g ai/ha, 0 to 100 scale, 0 no effect, 100 complete control): 30; Plant response rating, Foxtail, Giant ([8]; Postemergence, 2000 g ai/ha, 0 to 100 scale, 0 no effect, 100 complete control): 30; Foxtail, Giant plant response rating ([8]; Preemergence, 500 g ai/ha, visual rating, 0 to 100 scale (0 no effect, 100 complete control)): 20; Foxtail, Giant plant response rating ([8]; Preemergence, 2000 g ai/ha, visual rating, 0 to 100 scale (0 no effect, 100 complete control)): 35
